Reference: patent publication US20250275993A1, “GLYCOSYLATION INHIBITORS AS THERAPEUTICS FOR STROKE” (The Regents of the University of California, priority 2022, published 2025)

Legend:
AML12 liver cells = test: AML12 proliferation assay; format: cell-based, mouse
Experimental: (§1) Proliferation assays with fibroblasts were done in low-glucose DMEM containing 1% FBS, with or without 10 ng/ml bFGF, or 100 ng/ml human EGF and the assay was ended at day 3. ARPE-19 cells were gently lifted with 0.025% trypsin and plated in RtEGM media (Clonetics) containing 2% FBS, L-glutamine, human bFGF and GA-1000. Once cells were attached to plates, serum-free RtEGM media was used to maintain the cultures. For proliferation assays, 1500 human RPE cells were plated into 96-well plates in low-glucose DMEM containing 1% FBS. A673, U87MG, Calu6 and AML12 cells were grown until confluent and were then harvested and re-suspended in appropriate assay media. For proliferation assays, cells were plated at the density of 1000-2000 cells/well in low-glucose DMEM containing 5% FBS or otherwise stated. Bovine pituitary cells (pituitary folliculostellate cells) were isolated as previously described. For proliferation assays with human epidermal keratinocytes, human DMVECs and human dermal fibroblast cells, 1000 cells/well were plated in low-glucose DMEM containing 1% FBS with or without various growth factors. The assay was ended at day 3 for bovine pituitary cells and at day 4 for all the other cell types. […] Four days later, tumor cell growth was measured by the MTS assay (Promega, Madison, WI), a colorimetric assay that measures metabolic activity of viable cells. […]

β-Glucosidase = test: β-glucosidase activity assay; format: biochemical, almond; settings: up to 2 mM
Experimental: a-mannosidase activity was measured using substrate p-nitrophenyl α-mannopyranoside (1 mM). Enzyme from Jack Bean (M7257) (final concentration of 0.077 U) was incubated at 37° C. in a final volume of 50 μl of 50 mM potassium phosphate buffer, pH 7.5. α-glucosidase was assayed with substrate p-nitrophenyl a-glucoside (7 mM). Enzyme from Saccharomyces cerevisiae-type 1 (Sigma, G5003) (final concentration of 0.1 U) was incubated at 37° C. in a final volume of 50 μl of PBS, pH 7.5. β-Glucosidase was assayed with substrate 4-nitrophenyl β-D-glucopyranoside (Roche). Enzyme from almond (Sigma, G0395) (final concentration of 0.002 U) was incubated at 37° C. in a final volume of 50 μl of PBS, pH 7.5 […]. The incubation was stopped by addition of an equal volume of acid-based stop solution (R&D systems, 895032). Enzymatic activity was measured at 405 nm. α-glucosidase from Saccharomyces cerevisiae type I (G5003) with p-nitrophenyl α-D-glucopyranoside (Sigma, N1377) as the substrate.

A673 = A673 proliferation assay; format: cell-based; settings: ManN
Experimental: as §1

[1] = ManN stability in wound fluid from S. aureus infected mice; format: in vitro ADME, mouse; settings: up to 24 hours at 37° C.
Experimental: To test ManN stability in wound fluid collected from mice with skin infection as described below, 1.5 μl of 5% ManN solution was added to each 200 μl wound fluid which was first diluted 1:1 (v/v) with PBS. At each time point, samples were taken from 37° C. incubator and stored at −80° C. Plasma proteins were precipitated by adding ice cold acetonitrile to plasma: acetonitrile 1:3 (v/v) ratio. Samples were kept over ice for 1 hr and then centrifuged at 12000 g for 10 min at 7° C. to form a pellet. Supernatants were transferred to other tubed, dried down on a Speed Vac and then reconstituted in UltraPure distilled water and filtered through pre-washed Nanosep 3K Omega filters (Pall Corporation). The filtrate was dried down on Speed Vac. The dry samples were dissolved in 100 μl of water and 2 μl plasma or wound fluid sample was subjected to HPLC analysis. Neutral and amino sugars were separated on a Dionex CarboPac PAI column 4 mm×250 mm with 4 mm×50 mm guard column. An isocratic gradient of 19 mM sodium hydroxide with 0.95 mM sodium acetate was used at a flow rate of 1 ml/min with 20 min run. Data was collected using the Dionex ICS-3000 HPLC system with pulsed amperometric detector using standard Quad waveform. ManN was identified and quantified by comparison with monosaccharide standard using Thermo Scientific Chromeleon software. No ManN samples served as negative controls. […]

Calu6 = Calu6 proliferation assay; format: cell-based; settings: ManN
Experimental: as §1

N[C@H](C=O)[C@@H](O)[C@H](O)[C@H](O)CO [ManN, 2-Amino-2-deoxy-D-mannose]
sensitivity of AML12 to ManN toxicity (AML12 liver cells; 5 mM level of ManN): most sensitive one
proliferation of AML12 (AML12 liver cells; alone or in combination with growth factors): no increases in proliferation
effect on β-glucosidase (β-Glucosidase): No effect
growth of A673 (A673): did not promote growth
loss of free ManN in wound fluid [1]: No significant loss
growth of Calu6 (Calu6): did not promote growth
